# Measurements as given in patent US20020076833A1, “Analysis of biological samples utilizing a coated solid phase” (priority 2000, published 2002).
# Key:
# Assay type in all cases: cell-based, human
# [1] = test system: membrane-bound P-selectin on platelets; test: Membrane P-Selectin assay (Example 8); conditions: two minutes
# Method: (§1) Whole blood was obtained from a healthy volunteer and collected into a 3.0 mL blood collection tube containing 0.3 μg D-phe-pro-arg-chloromethylketone (PPACK, Dihydrochloride) and 2.1 mL Hanks' Balanced Salt supplemented with 10 mM HEPES, pH 7.4. An aliquot of this whole blood preparation was stimulated with 10 μM adenosine 5′-diphosphate (ADP) for two minutes prior to being tested in the assay. Another aliquot was stimulated with 2 μM adenosine 5′-diphosphate (ADP) for two minutes prior to being tested in the assay, and a final aliquot was not treated with ADP.
# (§2) To a set of 10 μL and 20 μL of each of the above three sample preparations 20 μL of FITC-labeled anti P-Selectin (anti-CD62P) rabbit polyclonal antibody (at 20 μg/mL) was added. The mixture was incubated for 10 minutes at room temperate at which point 50 μL of 0.5% (w/v) paramagnetic microparticles (3.7 micron (μm)) coated with anti-glycoprotein GP1b (CD42b) murine monoclonal antibody (Mab) was added. The mixtures were incubated at room temperature for an additional 10 minutes. The microparticles were separated magnetically and the supernatant was removed. The microparticles were washed by re-suspension in 200 μL of PBS supplemented with 1% bovine serum albumin (BSA) followed by magnetic separation of the microparticles and removal of the supernatant. This sequence was repeated three times and the microparticles were re-suspended in 0.1% SDS at pH 11. The microparticles were separated magnetically, and the supernatants were transferred to a 96 well plate and examined for fluorescence intensity.
# [2] = test system: membrane P-selectin on platelets; test: 2-Step membrane P-selectin assay in whole blood (Example 6); conditions: 10 μM ADP (with 1.0 uM Epinepherine where named) for two minutes, formalin treated
# Method: Whole blood was obtained from a healthy volunteer and collected into a sample collection tube containing D-Phe-Pro-Arg-chloromethylketone (PPACK, dihydrochloride). An aliquot of whole blood was stimulated with 10 μM adenosine diphosphate (ADP) and 1.0 uM Epinepherine for two minutes and then treated for two minutes with neutral buffered formalin (1% final concentration). An additional aliquot of whole blood was stimulated with 10 μM ADP for two minutes and then treated for two minutes with neutral buffered formalin. An additional aliquot of whole blood was treated for two minutes with 1% neutral buffered formalin for two minutes without ADP stimulation.
# 50 μL of 0.5% (w/v) paramagnetic microparticles (3.7 micron (μm)), which were coated with anti-glycoprotein GP1b murine monoclonal antibodies (Mab), were added to 100 μL of each of the above sample preparations. The mixtures were incubated at room temperature for 10 minutes. The microparticles were separated magnetically and the supernatant was removed. The microparticles were washed by re-suspension in 200 μL of PBS supplemented with 1% BSA. The microparticles were again separated magnetically and the supernatant removed. […] The microparticles were separated magnetically and the supernatants transferred to a 96 well plate and examined for fluorescence intensity.
# [3] = test system: membrane-bound P-selectin on platelets; test: 1-Step membrane P-selectin assay in whole blood (Example 5); conditions: 10 μM ADP for two minutes, formalin fixed
# Method: Whole blood was obtained from a healthy volunteer and collected into a blood collection tube containing D-phe-pro-arg-chloromethylketone (PPACK, Dihydrochloride). An aliquot of whole blood was stimulated with 10 μM adenosine diphosphate (ADP) for two minutes and then fixed for two minutes with neutral buffered formalin (1% final concentration). Another aliquot was not treated with ADP, but only fixed with 1% neutral buffered formalin for two minutes
# To 100 μL of each of the above three sample preparations the following reagents were added: 50 μL of FITC-labeled anti-P-selectin (anti-CD62P) rabbit polyclonal antibody (at 20 μg/mL) and 50 μL of 0.5% (w/v) paramagnetic microparticles (3.7 micron (μm)) coated with anti-glycoprotein GPIb (CD42b) murine monoclonal antibody (Mab). The mixtures were incubated at room temperature for either 10 or 15 minutes. The microparticles were separated magnetically and the supernatant was removed. The microparticles were washed by re-suspension in 200 μL of PBS supplemented with 1% bovine serum albumin (BSA) followed by magnetic separation of the microparticles and removal of the supernatant. This sequence was repeated and the microparticles were re-suspended in 0.1% SDS at pH 11. The microparticles were separated magnetically and the supernatants were transferred to a 96 well plate and examined for fluorescence intensity.
# [4] = test system: membrane GPIIb/IIIa on platelets; test: GPIIb/IIIa assay with fibrinogen-coated microparticles (Example 7); conditions: two minutes
# Method: 3.7 micron (μm) carboxyl-modified paramagnetic microparticles were coated with Human Fibrinogen which interacts and binds with the complexed form of the platelet membrane surface component glycoproteins GPIIb/GPIIIa (CD41/CD61). The coated particles were re-suspended in phosphate buffered saline (PBS) buffer at 0.5% w/v.
# as §1
# as §2, with “set of 5 μL, 10 μL,” for “set of 10 μL”, “μL, 10 μL, and 20” for “of 10 μL and 20”, “of FITC-labeled anti-IIb/IIIa (anti-CD41a) mouse monoclonal antibody (at” for “of FITC-labeled anti P-Selectin (anti-CD62P) rabbit polyclonal antibody (at”, “coated with Fibrinogen was added.” for “coated with anti-glycoprotein GP1b (CD42b) murine monoclonal antibody (Mab) was added.”, “serum albumin (BSA), followed by” for “serum albumin (BSA) followed by”, “were separated magnetically and the” for “were separated magnetically, and the”
smiles,measurement,setting,value
"Nc1ncnc2c1ncn2[C@@H]1O[C@H](COP(=O)(O)OP(=O)(O)O)[C@@H](O)[C@H]1O [ADP, adenosine diphosphate]",FITC Signal Detected,"[1]; 2 μM ADP, sample volume 10 μL",1544
same,FITC Signal Detected,"[1]; 2 μM ADP, sample volume 20 μL",2390
same,FITC Signal Detected,"[1]; 10 μM ADP, sample volume 10 μL",1749
same,FITC Signal Detected,"[1]; 10 μM ADP, sample volume 20 μL",2747
same,FITC Signal Detected,[2],17349
same,FITC Signal Detected,[3]; 10 min. incubation,1235
same,FITC Signal Detected,[3]; 15 min. incubation,1526
same,FITC Signal Detected,"[4]; 2 uM ADP, sample volume 5 μL",524
same,FITC Signal Detected,"[4]; 2 uM ADP, sample volume 10 μL",579
same,FITC Signal Detected,"[4]; 2 uM ADP, sample volume 20 μL",896
same,FITC Signal Detected,"[4]; 10 uM ADP, sample volume 5 μL",525
same,FITC Signal Detected,"[4]; 10 uM ADP, sample volume 10 μL",616
same,FITC Signal Detected,"[4]; 10 uM ADP, sample volume 20 μL",1031
